Reference: US20050026189A1, “Microbial operons” (priority 2003, published 2005)
In brackets after ≈: the same amount, converted by molar mass. Like-named read-outs stand apart in the source and are kept apart here. Positions of bridges follow the written chain, without caps; N, C: chain ends. Non-standard residues stand in square brackets, D forms with d. Residues, ends and D or L forms follow the SMILES beside them. *: point of attachment. Ileψ(thiazoline)Cys = CC[C@H](C)[C@H](N)C1=N[C@H](C(=O)*)CS1; dOrn = NCCC[C@@H](N)C(=O)O

Key:
[1] = system: E. coli transcribing antisense RNA to rplL and rplJ (AS-rplL/J); assay: microbe, parasite or virus in culture; assay type: cell-based; details: for Fold Increase in Sensitivity: IC50 without IPTG versus IC50 with 400 μM IPTG; for Sensitivity Increased?: statistically significant decrease in the IC50 value in the presence of inducer (IPTG); for IC50: Escherichia coli
Description: The effectiveness of the above assays was validated using proliferation-required genes from E. coli which were identified using procedures similar to those described above. Antibiotics of various chemical classes and modes of action were purchased from Sigma Chemicals (St. Louis, Mo.). Stock solutions were prepared by dissolving each antibiotic in an appropriate aqueous solution based on information provided by the manufacturer. The final working solution of each antibiotic contained no more than 0.2% (w/v) of any organic solvent. To determine their potency against a bacterial strain engineered for transcription of an antisense comprising a nucleotide sequence complementary to a proliferation-required 50S ribosomal protein, each antibiotic was serially diluted two- or three-fold in growth medium supplemented with the appropriate antibiotic for maintenance of the antisense construct. At least ten dilutions were prepared for each antibiotic. 25 μL aliquots of each dilution were transferred to discrete wells of a 384-well microplate (the assay plate) using a multi-channel pipette. Quadruplicate wells were used for each dilution of an antibiotic under each treatment condition (plus and minus inducer). Each assay plate contained twenty wells for cell growth controls (growth medium replacing antibiotic), ten wells for each treatment (plus and minus inducer, in this example IPTG). Assay plates were usually divided into the two treatments: half the plate containing induced cells and an appropriate concentrations of inducer (in this example IPTG) to maintain the state of induction, the other half containing non-induced cells in the absence of IPTG.
Cells for the assay were prepared as follows. Bacterial cells containing a construct, from which transcription of antisense nucleic acid comprising a nucleotide sequence complementary to rplL and rplJ (AS-rplL/J), which encode proliferation-required 50S ribosomal subunit proteins, is inducible in the presence of IPTG, were grown into exponential growth (OD600 0.2 to 0.3) and then diluted 1:100 into fresh medium containing either 400 μM or 0 μM inducer (IPTG). These cultures were incubated at 37° C. for 2.5 hr. After a 2.5 hr incubation, induced and non-induced cells were respectively diluted into an assay medium at a final OD600 value of 0.0004. The medium contained an appropriate concentration of the antibiotic for the maintenance of the antisense construct. In addition, the medium used to dilute induced cells was supplemented with 800 μM IPTG so that addition to the assay plate would result in a final IPTG concentration of 400 μM. Induced and non-induced cell suspensions were dispensed (25 μl/well) into the appropriate wells of the assay plate as discussed previously. The plate was then loaded into a plate reader, incubated at constant temperature, and cell growth was monitored in each well by the measurement of light scattering at 595 nm. Growth was monitored every 5 minutes until the cell culture attained a stationary growth phase. For each concentration of antibiotic, a percentage inhibition of growth was calculated at the time point corresponding to mid-exponential growth for the associated control wells (no antibiotic, plus or minus IPTG). For each antibiotic and condition (plus or minus IPTG), a plot of percent inhibition versus log of antibiotic concentration was generated and the IC50 determined.

[2] = system: Staphylococcus aureus cells transcribing antisense to gyrB; assay: Antibiotic potency in Staphylococcus aureus cells with and without xylose-induced antisense to the Beta subunit of DNA gyrase (FIG. 10); assay type: cell-based; details: 12 mM xylose versus 0 mM xylose; antisense to β subunit of gyrase
Description: Antibiotics of various chemical classes and modes of action were purchased from chemical suppliers, for example Sigma Chemicals (St. Louis, Mo). Stock solutions were prepared by dissolving each antibiotic in an appropriate aqueous solution based on information provided by the manufacturer. The final working solution of each antibiotic contained no more than 0.2% (w/v) of any organic solvent.
To determine its potency against a bacterial strain containing an antisense nucleic acid comprising a nucleotide sequence complementary to the nucleotide sequence encoding the Beta subunit of DNA gyrase (which is required for proliferation) under the control of a xylose inducible promoter, each antibiotic was serially diluted two- or three-fold in growth medium supplemented with the appropriate antibiotic for maintenance of the antisense construct. At least ten dilutions were prepared for each antibiotic.
Aliquots (25 μL) of each dilution were transferred to discrete wells of a 384-well microplate (the assay plate) using a multi-channel pipette. Quadruplicate wells were used for each dilution of an antibiotic under each treatment condition (plus and minus inducer). Each assay plate contained twenty wells for cell growth controls (growth medium, no antibiotic), ten wells for each treatment (plus and minus inducer, xylose, in this example). Half the assay plate contained induced cells (in this example Staphylococcus aureus cells) and appropriate concentrations of inducer (xylose, in this example) to maintain the state of induction while the other half of the assay plate contained non-induced cells maintained in the absence of inducer.
Cells of a bacterial clone containing a construct in which transcription of antisense comprising a nucleotide sequence complementary to the sequence encoding the Beta subunit of DNA gyrase under the control of the xylose inducible promoter (S1M10000001F08) were grown into exponential growth (OD600 0.2 to 0.3) and then diluted 1:100 into fresh medium containing either 12 mM or 0 mM inducer (xylose). These cultures were incubated at 37° C. for 2.5 hr. The presence of inducer (xylose) in the medium initiates and maintains production of antisense RNA from the antisense construct. After a 2.5 hr incubation, induced and non-induced cells were respectively diluted into an assay medium containing an appropriate concentration of the antibiotic for the maintenance of the antisense construct. In addition, medium used to dilute induced cells was supplemented with 24 mM xylose so that addition to the assay plate would result in a final xylose concentration of 12 mM. The cells were diluted to a final OD600 value of 0.0004.
Induced and non-induced cell suspensions were dispensed (25 μl/well) into the appropriate wells of the assay plate as discussed previously. The plate was then loaded into a plate reader and incubated at constant temperature while cell growth was monitored in each well by the measurement of light scattering at 595 nm. Growth was monitored every 5 minutes until the cell culture attained a stationary growth phase. For each concentration of antibiotic, a percentage inhibition of growth was calculated at the time point corresponding to mid-exponential growth for the associated control wells (no antibiotic, plus or minus xylose). For each antibiotic and condition (plus or minus xylose), plots of percent inhibition versus Log of antibiotic concentration were generated and IC50s, determined.

| Compound | Fold Increase in Sensitivity [1] | potency in induced cells as compared to uninduced cells [2] | Sensitivity Increased? [1] | also measured |
| --- | --- | --- | --- | --- |
| C[C@H]1c2cccc(O)c2C(=O)C2=C(O)[C@]3(O)C(=O)C(C(N)=O)=C(O)[C@@H](N(C)C)[C@@H]3[C@@H](O)[C@@H]21 [Doxycycline] | 15 Fold | – | – | – |
| CO/N=C(\C(=O)N[C@@H]1C(=O)N2C(C(=O)O)=C(COC(C)=O)CS[C@H]12)c1csc(N)n1 [Cefotaxime] | 1 Fold | not significantly different | No | – |
| CC(=O)O[C@H]1C[C@@]2(C)[C@@H](C[C@@H](O)[C@H]3[C@@]4(C)CC[C@@H](O)[C@@H](C)[C@@H]4CC[C@@]32C)/C1=C(\CCC=C(C)C)C(=O)O [Fusidic acid] | 94 Fold | not significantly different | Yes | – |
| CN(C)c1ccc(O)c2c1C[C@H]1C[C@H]3[C@H](N(C)C)C(O)=C(C(N)=O)C(=O)[C@@]3(O)C(O)=C1C2=O [Minocycline] | 172 Fold | – | – | – |
| COc1cc(Cc2cnc(N)nc2N)cc(OC)c1OC [Trimethoprim] | – | not significantly different | – | – |
| CN(C)[C@@H]1C(O)=C(C(N)=O)C(=O)[C@@]2(O)C(O)=C3C(=O)c4c(O)cccc4[C@@](C)(O)[C@H]3C[C@@H]12 [Tetracycline] | 109 Fold | – | – | – |
| [H]/N=C(/N)N[C@H]1[C@H](O)[C@@H](O)[C@H](O[C@@H]2O[C@@H](C)[C@](O)(C=O)[C@H]2O[C@@H]2O[C@@H](CO)[C@H](O)[C@@H](O)[C@@H]2NC)[C@@H](N/C(N)=N\[H])[C@@H]1O [Streptomycin] | 70 Fold | – | Yes | – |
| CN[C@H](CC(C)C)C(=O)N[C@H]1C(=O)N[C@@H](CC(N)=O)C(=O)N[C@H]2C(=O)N[C@H]3C(=O)N[C@H](C(=O)N[C@H](C(=O)O)c4cc(O)cc(O)c4-c4cc3ccc4O)[C@H](O)c3ccc(c(Cl)c3)Oc3cc2cc(c3O[C@@H]2O[C@H](CO)[C@@H](O)[C@H](O)[C@H]2O[C@H]2C[C@](C)(N)[C@H](O)[C@H](C)O2)Oc2ccc(cc2Cl)[C@H]1O [Vancomycin] | 2 Fold | not significantly different | No | IC50 ([1]; read-out: IC50 (+IPTG)): 72.5 µg/mL (≈ 50.1 µM); IC50 ([1]; read-out: IC50 (−IPTG)): 145 µg/mL (≈ 100 µM) |
| CO[C@@]1(NC(=O)Cc2cccs2)C(=O)N2C(C(=O)O)=C(COC(N)=O)CS[C@@H]21 [Cefoxitin] | 1 Fold | not significantly different | No | – |
| O=C(N[C@H](CO)[C@H](O)c1ccc([N+](=O)[O-])cc1)C(Cl)Cl [Chloramphenicol] | 307 Fold | – | Yes | – |
| Gentamicin | 141 Fold | – | Yes | IC50 (+IPTG) ([1]; induced cells, 400 μM IPTG): 0.01919 µg/mL; IC50 (−IPTG) ([1]; non-induced cells, 0 μM IPTG): 2.715 µg/mL |
| CC[C@H](C)[C@H](N)C1=N[C@H](C(=O)N[C@@H](CC(C)C)C(=O)N[C@H](CCC(=O)O)C(=O)N[C@H](C(=O)N[C@H]2CCCCNC(=O)[C@H](CC(N)=O)NC(=O)[C@@H](CC(=O)O)NC(=O)[C@H](Cc3cnc[nH]3)NC(=O)[C@@H](Cc3ccccc3)NC(=O)[C@H]([C@@H](C)CC)NC(=O)[C@@H](CCCN)NC2=O)[C@@H](C)CC)CS1 [Bacitracin] ({Ileψ(thiazoline)Cys}-L[dE]IK[dOrn]I[dF]H[dD]N; lactam 4-C) | 1 Fold | – | No | – |
| NC[C@H]1O[C@H](O[C@H]2[C@H](O)[C@@H](O[C@H]3O[C@H](CO)[C@@H](O)[C@H](N)[C@H]3O)[C@H](N)C[C@@H]2N)[C@H](N)C[C@@H]1O [Tobramycin] | 51 Fold | not significantly different | Yes | – |
| CN[C@@H]1[C@H](O)[C@H](NC)[C@H]2O[C@@]3(O)C(=O)C[C@@H](C)O[C@H]3O[C@@H]2[C@H]1O [Spectinomycin] | – | – | Yes | – |
| CC1COc2c(N3CCN(C)CC3)c(F)cc3c(=O)c(C(=O)O)cn1c23 (stereo not drawn) [Ofloxacin] | 1 Fold | – | – | – |
| CCC[C@@H]1C[C@@H](C(=O)N[C@@H]([C@H]2O[C@H](SC)[C@H](O)[C@@H](O)[C@H]2O)[C@@H](C)O)N(C)C1 [Lincomycin] | 145 Fold | not significantly different | Yes | – |
